Data set [1] has as its target T1, ACE (from rabbit lung) (Oryctolagus cuniculus, UniProt P12822).
T1 construct: ACE (from rabbit lung); purchased Sigma Chemicals Co., Ltd. (St. Louis, MO, USA); host or cells: rabbit lung (tissue of origin)
T1 sequence (P12822 34-1310): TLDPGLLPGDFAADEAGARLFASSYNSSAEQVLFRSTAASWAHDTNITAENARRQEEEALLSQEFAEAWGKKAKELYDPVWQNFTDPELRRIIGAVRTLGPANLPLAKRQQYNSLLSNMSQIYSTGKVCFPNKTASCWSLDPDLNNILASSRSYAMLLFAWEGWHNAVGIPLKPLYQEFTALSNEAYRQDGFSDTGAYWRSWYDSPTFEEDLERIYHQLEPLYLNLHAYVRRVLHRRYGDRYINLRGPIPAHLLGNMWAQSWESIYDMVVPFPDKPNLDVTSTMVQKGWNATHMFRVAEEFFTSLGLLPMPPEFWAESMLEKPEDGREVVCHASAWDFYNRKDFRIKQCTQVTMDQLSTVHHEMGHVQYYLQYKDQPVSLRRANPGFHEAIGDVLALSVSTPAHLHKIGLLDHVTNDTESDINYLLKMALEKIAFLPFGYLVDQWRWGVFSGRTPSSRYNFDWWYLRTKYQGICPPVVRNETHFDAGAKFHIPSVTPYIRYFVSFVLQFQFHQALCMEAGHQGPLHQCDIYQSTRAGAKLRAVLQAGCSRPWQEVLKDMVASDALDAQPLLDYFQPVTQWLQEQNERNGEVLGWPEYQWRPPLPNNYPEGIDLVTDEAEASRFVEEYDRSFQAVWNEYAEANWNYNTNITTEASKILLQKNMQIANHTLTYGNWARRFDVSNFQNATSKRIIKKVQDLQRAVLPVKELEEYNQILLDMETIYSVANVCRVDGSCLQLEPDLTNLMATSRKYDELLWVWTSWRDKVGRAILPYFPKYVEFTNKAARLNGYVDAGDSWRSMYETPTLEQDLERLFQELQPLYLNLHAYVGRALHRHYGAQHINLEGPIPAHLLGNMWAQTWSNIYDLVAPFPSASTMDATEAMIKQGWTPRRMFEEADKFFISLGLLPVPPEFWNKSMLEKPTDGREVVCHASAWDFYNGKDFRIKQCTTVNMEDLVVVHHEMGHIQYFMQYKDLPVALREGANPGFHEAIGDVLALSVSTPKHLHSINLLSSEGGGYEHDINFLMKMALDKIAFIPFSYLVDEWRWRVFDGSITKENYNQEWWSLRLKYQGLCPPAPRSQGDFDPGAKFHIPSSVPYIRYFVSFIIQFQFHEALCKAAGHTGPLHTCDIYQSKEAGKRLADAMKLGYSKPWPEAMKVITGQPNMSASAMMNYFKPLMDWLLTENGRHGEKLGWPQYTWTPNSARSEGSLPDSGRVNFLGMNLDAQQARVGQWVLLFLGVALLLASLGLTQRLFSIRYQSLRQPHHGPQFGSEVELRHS
As to the kind of experiment: In vitro ACE inhibitory activity assay (HHL substrate, hippuric acid by HPLC). The class given is biochemical. Conditions: synthetic peptides; read-out: IC50 for ACE inhibition (converted). From the text:
(§1) Raw sardines (S. pilchardus) were purchased from Xiangtai Fisheries Co., Ltd. (Haikou, Hainan, China). ACE (from rabbit lung) and N-Hippuryl-His-Leu (HHL) were purchased from Sigma Chemicals Co., Ltd. (St. Louis, MO, USA). Dispase (enzyme activity 200 U/mg) was purchased from Adamas Chemicals Co., Ltd. (Shanghai, China). Alkaline protease (enzyme activity 200 U/mg) and borate buffer solution (BBS, pH8.4, containing 0.1 M H3BO3 and 0.025 M Na2B4O7) were purchased from Shanghai Yuanye Biotechnology Co., Ltd. (Shanghai, China). Trifluoroacetic acid (TFA), formic acid (FA), and acetonitrile (ACN) were obtained from Thermo Fisher Scientific Co., Ltd. (Waltham, MA, USA). The materials used for HPLC analysis were of HPLC grade, and all other reagents were of analytical grade. Artificial gastric fluid (10 g/L pepsin) and artificial intestinal fluid (10 g/L pancreatic enzyme) were purchased from Guangzhou Testing Technology Co., Ltd. (Guangzhou, China).
The ACE inhibitory activity assay was determined according to a previous report with some modifications. HHL was dissolved in BBS to make a solution with a concentration of 5 mmol/L. The ACE was dissolved in BBS at a concentration of 0.06 U/mL. The reaction system was as follows: 20 μL of 0.06 U/mL ACE solution and 40 μL of sample solution or control (BBS) was added. After 5 min in a water bath at 37 °C, 50 μL of 5 mM HHL was added and incubated at 37 °C for 1 h. At the end of the incubation, 50 μL of […] was added to terminate the reaction. 500 μL water was added to the reaction system. Hippuric acid (HA) was quantified after being released from the system using HPLC and InertSustain C18 (5 μm, 4.6 × 250 mm). HPLC analysis conditions were as follows: the UV wavelength was constant at 228 nm, the mobile phase was 0.1% TFA/25% ACN in water, the flow rate was 1 mL/min, and the injection volume was 10 μL. The ACE inhibition activity was calculated by the following equation:(1) ACE Inhibition Activity=∆A−∆B/∆A × 100, where ΔA represented the peak area of HA in the control group; ΔB represented the peak area of the sample group.
All experiments were performed in triplicate (except for the molecular docking results), and data were reported as mean ± SD (n ≥ 3). An ANOVA test using SPSS 26.0 (SPSS Corporation, Chicago, IL, USA) was used to analyze the experimental data. The IC50 value was defined as the half concentration of the peptide required to inhibit the ACE activity, and the IC50 of the ACE inhibitory peptides was determined by calculating the ACE inhibition rate at various sample concentrations using the SPSS 26.0 probit regression model.

Data set [2] in a line: Digestive stability in artificial intestinal fluid. It counts as in vitro ADME. Conditions: 37 °C, 2.0 h.
Excerpt: as §1
Peptides were quantified using HPLC and InertSustain C18 (5 μm, 4.6 × 250 mm). For FIGR, HPLC analysis conditions were as follows: the UV wavelength was constant at 228 nm, the mobile phase was 0.1% TFA/15% ACN in water, the flow rate was 1 mL/min, and the injection volume was 10 μL. For rest peptides, the mobile phase was 0.1% TFA/25% ACN in water, and the other conditions were the same as FIGR.
The peptide solutions of 0.10, 0.25, 0.50, 1.00, and 1.50 mg/mL were prepared precisely, and the peak areas of the peptides at different concentration conditions were determined. The peak area was plotted as the vertical coordinate and the concentration as the horizontal coordinate to find out the regression equation.
In total, 50 μL of the 10 mg/mL peptide solution was mixed with 450 μL of artificial gastric fluid or artificial intestinal fluid in a water bath at 37 °C for 2.0 h. Then, digestion was stopped in a water bath at 90 °C for 5 min, and the method for determining the peptide content was mentioned in Section 2.10.1. Peptide preservation rate was calculated as (3) Peptide Preservation Rate=Peptide content after treatment/Peptide content before treatment × 100,

Data set [3] can be described thus: ABTS+ scavenging activity. The conditions noted are these: positive control 10 μg/mL. As to the method:
The 2,2′-Azinobis(3-ethylbenzothiazoline-6-sulfonic acid Ammonium Salt (ABTS) is commonly utilized as a stable free radical source in experiments. It is oxidized by potassium persulfate to produce an ABTS+ radical cation, which has a blue-green hue and absorbs light at 734 nm. When antioxidants are added, the free radical cations are reduced to the colorless ABTS form.
The ABTS+ was generated by mixing 7 mM ABTS and 4.09 mM potassium persulfate in the same volume, and the mixture was kept in the dark at room temperature for 12 h before use. The sample (1 mg/mL) group added sample 0.5 mL with 1 mL of ABTS+ solution. Control group was the same as the sample group, except that the sample was replaced with deionized water. Blank group was added deionized water 0.5 mL with 1 mL of ABTS+ solution. After incubation at room temperature for 6 min, the absorbance was tested at 734 nm. The positive control was 10 μg/mL glutathione (GSH). The sample’s concentration of 1 mg/mL falls within the linear range of the sample’s ABTS scavenging ability. (5) ABTS+Scavenging Activity=(1 − A1−A2/A3) × 100, where A1 is absorbance of sample group, A2 is absorbance of control group, and A3 is absorbance of blank group.

Data set [4] can be described thus: DPPH radical scavenging activity. Conditions: positive control 10 μg/mL. On the procedure: The 2,2-diphenyl-1-picrylhydrazyl (DPPH) is a stable free radical with a distinct purple color and absorbs light at 517 nm. Antioxidants added to the DPPH solution lead to a reduction in the DPPH radical to a non-radical form, resulting in a decrease in the solution’s absorbance. […] This principle of DPPH radical scavenging is commonly utilized for evaluating the antioxidant capacity of various substances, such as peptides.
Sample (1 mg/mL) group was aliquots of samples being mixed 1:1 (v/v) with 0.1 mmol/L DPPH (in ethanol absolute); control group was aliquots of samples being mixed 1:1 (v/v) with ethanol absolute; and blank group was aliquots of ethanol absolute being mixed 1:1 (v/v) with 0.1 mmol/L DPPH (in ethanol absolute). The mixture was shaken and kept for 40 min at room temperature and protected from light. The radical scavenging activity of DPPH radical was determined by measuring the absorbance at 517 nm. […] In this study, the sample concentration was 1 mg/mL, which was determined to be within the linear range of the concentration of the sample and its DPPH scavenging ability. The ability of the sample to scavenge DPPH radical was calculated according to the following equation:(4) DPPH Radical Scavenging Activity=(1 − Ai−Aj/A0) × 100, where Ai is absorbance of sample group, Aj is absorbance of control group, and A0 is absorbance of blank group.
(In general: DPPH is a stable violet radical that fades when it is reduced.)

The nature of data set [5]: Hydroxyl radical scavenging activity (salicylic acid). The conditions noted are these: positive control 10 μg/mL. As to the method:
The hydroxyl radical (·OH) is a free radical that comprises an oxygen atom and a hydrogen atom (·OH). The principle behind measuring hydroxyl radical scavenging activity involves the reaction between the hydroxyl radical and salicylic acid, which produces 2, 3-dihydroxybenzoic acid that can be quantified by measuring the absorbance at 510 nm.
The 1 mL of sample (1 mg/mL) was mixed with 1 mL of 4.5 mmol/L of ferrous sulfate and 1 mL of 30% H2O2 (v/v). The reaction mixture was standing for 10 min after vortexing. Then, 1 mL of 4.5 mmol/L salicylic acid was added and subsequently vortexed. After a water bath at 37 °C for 30 min, the absorbance of the mixture was measured at 510 nm (As). For the control, deionized water was added instead of salicylic acid (Ac). Vitamin C (Vc) was used as a positive control at 10 μg/mL. Hydroxyl radical scavenging activity was calculated as follows:(6) Hydroxyl Radical Scavenging Activity=(1 − Ac−As/Ac) × 100,

Data set [6] deals with ACE. Conditions: cited from earlier work.
Data set [7] in a line: Fe2+-chelating ability (ferrozine). Conditions: positive control 10 μg/mL.
Protocol: When Fe^2+ and ferrozine are combined, they form a stable magenta-colored complex. The presence of chelators in the solution can cause them to bind with the Fe^2+ ions, thereby preventing the formation of the Fe^2+-ferrozine complex. As a result, the amount of Fe^2+-ferrozine complex in the solution decreases, leading to a decrease in the absorbance of the solution at 562 nm.
The sample (1 mg/mL) group was a 1 mL sample mixed with 3.7 mL deionized water and 0.1 mL of FeCl2 (2 mmol/L) and 0.2 mL of ferrozine (5 mmol/L). The mixture was protected from light and kept at room temperature for 10 min prior to measuring the absorbance at 562 nm. Control group contained everything, except it used deionized water instead of sample, and blank group used deionized water instead of FeCl2 (2 mmol/L). […] The chelating ability was calculated according to the following equation:(7) Fe^2+-chelating ability=(1 − A1−A2/A3) × 100, where A1 is absorbance of sample group, A2 is absorbance of blank group, and A3 is absorbance of control group.

In general, IC50 refers to the concentration at which inhibition is half-maximal. By pIC50 is commonly meant −log10 of the IC50, conventionally taken in molar units.

pIC50: −log10 of the molar value. Where a SMILES comes first, the peptide text is derived from it.

Take `CC(C)C[C@H](NC(=O)[C@H](C)NC(=O)[C@H](CCCNC(=N)N)NC(=O)[C@@H](N)Cc1ccccc1)C(=O)O` [FRAL] (H-FRAL-OH; N-terminus and C-terminus assumed): in data set [1], the IC50 was 1.31 mM. Further, in data set [2], the “Retention rate after intestinal digestion” value (“Retention rate” for short) is on record as 10.83% ± 0.44. Take `CC[C@H](C)[C@H](NC(=O)[C@@H](N)Cc1ccccc1)C(=O)NCC(=O)N[C@@H](CCCNC(=N)N)C(=O)O` [FIGR] (H-FIGR-OH; N-terminus and C-terminus assumed): the IC50 in data set [1] is 1.22 mM. Also, in data set [2], the “Retention rate” value is reported as 50.78% ± 0.77. In the case of `N[C@@H](CCC(=O)N[C@@H](CS)C(=O)NCC(=O)O)C(=O)O` [GSH, Glutathione], the ABTS scavenging capacity in data set [3] is recorded as 9.01% ± 0.69. For the same compound, the DPPH scavenging capacity in data set [4] was 33.25% ± 1.44. Regarding `O=C1O[C@H]([C@@H](O)CO)C(O)=C1O` [Vc, Vitamin C], the “Hydroxyl radical scavenging ability” value in data set [5] was 9.39% ± 0.54. In the case of `CC[C@H](C)[C@H](NC(=O)[C@@H](N)Cc1ccccc1)C(=O)N[C@@H](CC(C)C)C(=O)N[C@@H](CCCNC(=N)N)C(=O)O` [FILR] (H-FILR-OH; N-terminus and C-terminus assumed), the “Retention rate” value in data set [2] is 86.23% ± 1.60. Consider RWDISQPY, for which the ACE inhibition pattern result in data set [6] was “Competitive”. In the case of `CC(C)C[C@H](NC(=O)[C@H](CCCNC(=N)N)NC(=O)[C@H](CCC(N)=O)NC(=O)[C@@H](N)Cc1ccccc1)C(=O)O` [FQRL] (H-FQRL-OH; N-terminus and C-terminus assumed), in data set [2], the “Retention rate” value is reported as 25.62% ± 2.01. For the compound `O=C([O-])CN(CCN(CC(=O)O)CC(=O)O)CC(=O)[O-].[Na+].[Na+]` [EDTA-2Na], the “Fe2+ chelating capacity” value in data set [7] is given as 28.81% ± 1.13. With AEYLCEAC, the pIC50 in data set [6] is 2.37. With `CC(C)C[C@H](NC(=O)[C@H](Cc1ccccc1)NC(=O)[C@@H](N)CCCCN)C(=O)O` [KFL] (H-Lys-Phe-Leu-OH; N-terminus and C-terminus assumed), in data set [1], the IC50 is 1.5 mM. For the same compound, the “Retention rate” value in data set [2] is given as 73.36% ± 0.86.

In the case of `CC(C)C[C@H](NC(=O)[C@@H](N)CCCCN)C(=O)N[C@@H](Cc1ccccc1)C(=O)O` [KLF] (H-Lys-Leu-Phe-OH; N-terminus and C-terminus assumed), in data set [1], the IC50 was 2.19 mM. In addition, in data set [2], the “Retention rate” value is reported as 88.92% ± 2.60.

These data come from paper PMC10252845, “Identification and Characterization of Novel ACE Inhibitory and Antioxidant Peptides from Sardina pilchardus Hydrolysate” (Foods, 2023).
